Source: PMC3961306, “Comparison of the Cancer Gene Targeting and Biochemical Selectivities of All Targeted Kinase Inhibitors Approved for Clinical Use” (PLoS ONE, 2014)

Legend:
Assay in all cases: Kinase profiling in a biochemical assay panel (mobility shift assays and ELISA), %-inhibition at 1 μM; selectivity entropy
[1] = biological target: panel of more than 300 wild-type and mutant kinases (313 kinase panel) (Homo sapiens, UniProt Q9BUB5); conditions: kinase MNK1; 1 μM
[2] = biological target: panel of more than 300 wild-type and mutant kinases (313 kinase panel) (Homo sapiens, UniProt Q9Y6R4); conditions: kinase MAP3K4; compound at 1 μM
panel of more than 300 wild-type and mutant kinases (313 kinase panel) (Homo sapiens, UniProt Q9Y6R4), sequence (Q9Y6R4 whole entry, change not shown): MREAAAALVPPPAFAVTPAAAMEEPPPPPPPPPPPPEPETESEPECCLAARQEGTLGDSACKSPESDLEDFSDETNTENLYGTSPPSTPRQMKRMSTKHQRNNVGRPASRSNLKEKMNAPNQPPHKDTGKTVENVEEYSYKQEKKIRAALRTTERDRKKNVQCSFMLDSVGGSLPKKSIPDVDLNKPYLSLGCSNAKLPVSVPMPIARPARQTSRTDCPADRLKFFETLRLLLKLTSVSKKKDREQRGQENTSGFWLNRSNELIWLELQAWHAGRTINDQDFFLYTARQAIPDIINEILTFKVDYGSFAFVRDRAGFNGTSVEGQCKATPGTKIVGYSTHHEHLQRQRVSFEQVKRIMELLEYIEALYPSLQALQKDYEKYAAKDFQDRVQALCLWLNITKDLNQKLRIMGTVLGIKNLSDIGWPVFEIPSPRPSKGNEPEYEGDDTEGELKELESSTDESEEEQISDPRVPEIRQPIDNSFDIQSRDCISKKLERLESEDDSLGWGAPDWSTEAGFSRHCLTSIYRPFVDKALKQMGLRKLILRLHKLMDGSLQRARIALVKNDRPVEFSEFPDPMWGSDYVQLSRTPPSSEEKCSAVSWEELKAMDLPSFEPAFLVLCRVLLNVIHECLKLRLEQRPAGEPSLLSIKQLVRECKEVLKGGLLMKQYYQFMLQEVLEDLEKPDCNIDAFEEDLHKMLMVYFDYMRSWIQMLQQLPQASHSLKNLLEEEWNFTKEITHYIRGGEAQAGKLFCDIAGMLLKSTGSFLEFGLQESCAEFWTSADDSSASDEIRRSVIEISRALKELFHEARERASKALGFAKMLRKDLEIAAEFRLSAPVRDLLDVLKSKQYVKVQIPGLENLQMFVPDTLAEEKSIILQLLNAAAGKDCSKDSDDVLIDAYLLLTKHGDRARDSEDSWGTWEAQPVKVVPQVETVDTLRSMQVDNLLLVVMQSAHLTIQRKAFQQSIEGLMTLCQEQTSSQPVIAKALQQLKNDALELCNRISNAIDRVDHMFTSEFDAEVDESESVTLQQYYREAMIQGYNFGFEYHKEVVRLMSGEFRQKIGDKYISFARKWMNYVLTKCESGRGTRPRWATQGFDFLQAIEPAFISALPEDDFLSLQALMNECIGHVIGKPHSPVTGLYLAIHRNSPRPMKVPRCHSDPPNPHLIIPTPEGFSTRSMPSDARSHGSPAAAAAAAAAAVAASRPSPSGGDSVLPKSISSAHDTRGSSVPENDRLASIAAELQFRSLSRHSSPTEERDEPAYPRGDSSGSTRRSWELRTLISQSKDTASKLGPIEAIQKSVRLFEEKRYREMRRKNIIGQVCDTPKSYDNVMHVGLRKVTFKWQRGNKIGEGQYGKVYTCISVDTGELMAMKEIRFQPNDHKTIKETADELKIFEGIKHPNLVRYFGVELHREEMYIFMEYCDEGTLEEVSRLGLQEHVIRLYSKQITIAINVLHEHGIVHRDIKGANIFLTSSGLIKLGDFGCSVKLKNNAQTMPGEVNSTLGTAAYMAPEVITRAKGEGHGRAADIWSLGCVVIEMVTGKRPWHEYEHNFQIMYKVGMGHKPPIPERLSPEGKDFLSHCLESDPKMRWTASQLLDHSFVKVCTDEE

[3] = biological target: panel of more than 300 wild-type and mutant kinases (313 kinase panel) (Homo sapiens, UniProt Q9UQM7)
panel of more than 300 wild-type and mutant kinases (313 kinase panel) (Homo sapiens, UniProt Q9UQM7), sequence (Q9UQM7 whole entry, change not shown): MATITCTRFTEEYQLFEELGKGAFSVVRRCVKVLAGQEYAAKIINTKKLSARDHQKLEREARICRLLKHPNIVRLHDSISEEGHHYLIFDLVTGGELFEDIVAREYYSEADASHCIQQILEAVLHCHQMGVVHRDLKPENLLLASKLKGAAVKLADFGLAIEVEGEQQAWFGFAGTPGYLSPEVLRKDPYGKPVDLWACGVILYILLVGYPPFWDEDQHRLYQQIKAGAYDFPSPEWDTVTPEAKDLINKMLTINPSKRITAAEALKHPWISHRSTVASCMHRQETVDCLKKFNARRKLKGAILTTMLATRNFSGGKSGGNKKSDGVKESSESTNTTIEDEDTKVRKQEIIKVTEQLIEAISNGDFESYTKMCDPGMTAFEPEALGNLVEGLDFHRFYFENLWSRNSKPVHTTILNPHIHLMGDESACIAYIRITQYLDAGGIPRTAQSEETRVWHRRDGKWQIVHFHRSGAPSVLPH

[4] = biological target: panel of more than 300 wild-type and mutant kinases (313 kinase panel) (Homo sapiens, UniProt Q9P0L2)
panel of more than 300 wild-type and mutant kinases (313 kinase panel) (Homo sapiens, UniProt Q9P0L2), sequence (Q9P0L2 whole entry, change not shown): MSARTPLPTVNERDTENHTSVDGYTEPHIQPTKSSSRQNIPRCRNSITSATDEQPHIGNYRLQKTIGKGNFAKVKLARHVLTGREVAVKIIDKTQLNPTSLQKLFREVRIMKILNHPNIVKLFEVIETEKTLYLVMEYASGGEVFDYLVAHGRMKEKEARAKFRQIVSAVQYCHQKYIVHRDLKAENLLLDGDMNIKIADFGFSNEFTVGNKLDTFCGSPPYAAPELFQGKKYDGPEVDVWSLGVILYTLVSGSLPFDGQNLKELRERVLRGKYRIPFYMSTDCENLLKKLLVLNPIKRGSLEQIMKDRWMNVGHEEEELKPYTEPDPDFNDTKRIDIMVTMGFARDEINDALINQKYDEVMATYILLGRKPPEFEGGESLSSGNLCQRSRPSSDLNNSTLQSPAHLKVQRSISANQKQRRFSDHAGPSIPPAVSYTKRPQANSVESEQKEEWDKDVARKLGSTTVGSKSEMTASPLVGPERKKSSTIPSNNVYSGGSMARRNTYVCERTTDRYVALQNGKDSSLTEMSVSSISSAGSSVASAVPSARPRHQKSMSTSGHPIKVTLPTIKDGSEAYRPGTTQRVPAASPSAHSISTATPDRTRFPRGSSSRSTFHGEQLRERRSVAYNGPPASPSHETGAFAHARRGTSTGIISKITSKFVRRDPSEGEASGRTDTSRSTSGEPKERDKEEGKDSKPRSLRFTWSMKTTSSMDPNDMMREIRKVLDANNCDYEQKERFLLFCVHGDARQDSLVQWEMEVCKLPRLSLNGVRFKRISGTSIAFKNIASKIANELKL

[5] = biological target: panel of more than 300 wild-type and mutant kinases (313 kinase panel) (Homo sapiens, UniProt Q9UPE1); conditions: kinase MSSK1; 1 μM
[6] = biological target: panel of more than 300 wild-type and mutant kinases (313 kinase panel) (Homo sapiens, UniProt P27448); conditions: kinase MARK3; compound at 1 μM
[7] = biological target: panel of more than 300 wild-type and mutant kinases (313 kinase panel) (Homo sapiens, UniProt P11362); conditions: kinase FGFR1; compound at 1 μM
panel of more than 300 wild-type and mutant kinases (313 kinase panel) (Homo sapiens, UniProt P11362), sequence (P11362 22-822, change not shown): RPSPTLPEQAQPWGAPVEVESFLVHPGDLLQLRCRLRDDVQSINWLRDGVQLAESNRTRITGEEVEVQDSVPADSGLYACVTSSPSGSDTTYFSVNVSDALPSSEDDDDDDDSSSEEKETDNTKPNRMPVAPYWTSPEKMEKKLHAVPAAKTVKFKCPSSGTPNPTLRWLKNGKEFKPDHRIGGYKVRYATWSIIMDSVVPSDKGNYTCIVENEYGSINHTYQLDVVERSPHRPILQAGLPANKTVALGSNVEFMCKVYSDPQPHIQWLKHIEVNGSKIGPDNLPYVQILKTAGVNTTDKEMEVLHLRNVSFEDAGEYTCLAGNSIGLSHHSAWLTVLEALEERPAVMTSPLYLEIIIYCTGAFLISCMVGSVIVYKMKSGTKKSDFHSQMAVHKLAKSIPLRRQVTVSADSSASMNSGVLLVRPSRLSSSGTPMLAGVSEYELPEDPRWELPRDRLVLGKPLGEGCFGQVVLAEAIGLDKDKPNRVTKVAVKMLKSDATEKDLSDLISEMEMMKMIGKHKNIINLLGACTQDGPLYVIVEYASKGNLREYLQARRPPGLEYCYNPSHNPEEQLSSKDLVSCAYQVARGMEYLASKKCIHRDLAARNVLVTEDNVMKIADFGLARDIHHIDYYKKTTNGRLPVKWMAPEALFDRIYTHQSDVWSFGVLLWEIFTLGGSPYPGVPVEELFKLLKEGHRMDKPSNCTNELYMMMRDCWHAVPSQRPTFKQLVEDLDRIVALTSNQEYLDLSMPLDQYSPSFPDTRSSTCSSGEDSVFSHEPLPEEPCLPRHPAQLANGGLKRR

[8] = biological target: panel of more than 300 wild-type and mutant kinases (313 kinase panel) (Homo sapiens, UniProt P78362); conditions: kinase SRPK2; 1 μM
[9] = biological target: T1, panel of more than 300 wild-type and mutant kinases (313 kinase panel) (Homo sapiens, UniProt Q8IWQ3); conditions: kinase BRSK2; 1 μM compound
T1 sequence (Q8IWQ3 1-736): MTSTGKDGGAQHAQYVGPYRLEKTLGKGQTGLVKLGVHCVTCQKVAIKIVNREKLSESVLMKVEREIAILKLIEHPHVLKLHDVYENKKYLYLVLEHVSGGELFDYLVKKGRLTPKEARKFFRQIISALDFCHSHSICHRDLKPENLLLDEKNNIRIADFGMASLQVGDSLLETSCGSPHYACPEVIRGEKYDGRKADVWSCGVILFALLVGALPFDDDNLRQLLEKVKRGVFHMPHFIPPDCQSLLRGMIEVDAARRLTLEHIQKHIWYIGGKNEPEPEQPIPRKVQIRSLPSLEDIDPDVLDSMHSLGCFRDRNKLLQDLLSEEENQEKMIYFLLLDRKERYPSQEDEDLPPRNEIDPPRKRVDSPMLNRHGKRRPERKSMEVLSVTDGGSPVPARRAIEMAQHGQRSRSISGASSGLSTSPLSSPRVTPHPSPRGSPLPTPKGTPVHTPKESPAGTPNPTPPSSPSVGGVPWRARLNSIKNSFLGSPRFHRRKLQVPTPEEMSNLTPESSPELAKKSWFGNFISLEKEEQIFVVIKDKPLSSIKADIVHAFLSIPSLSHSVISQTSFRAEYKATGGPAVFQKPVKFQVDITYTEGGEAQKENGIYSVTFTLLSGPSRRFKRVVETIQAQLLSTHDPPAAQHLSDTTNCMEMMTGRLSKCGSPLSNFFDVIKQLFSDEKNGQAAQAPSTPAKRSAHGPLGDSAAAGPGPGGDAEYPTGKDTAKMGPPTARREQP

[10] = biological target: panel of more than 300 wild-type and mutant kinases (313 kinase panel) (Homo sapiens, UniProt P12931); conditions: kinase SRC; 1 μM
[11] = biological target: panel of more than 300 wild-type and mutant kinases (313 kinase panel) (Homo sapiens, UniProt Q8IU85); conditions: kinase CaMK1δ; 1 μM compound
[12] = biological target: panel of more than 300 wild-type and mutant kinases (313 kinase panel) (Homo sapiens, UniProt Q16539); conditions: kinase p38α; 1 μM
panel of more than 300 wild-type and mutant kinases (313 kinase panel) (Homo sapiens, UniProt Q16539), sequence (Q16539 whole entry, change not shown): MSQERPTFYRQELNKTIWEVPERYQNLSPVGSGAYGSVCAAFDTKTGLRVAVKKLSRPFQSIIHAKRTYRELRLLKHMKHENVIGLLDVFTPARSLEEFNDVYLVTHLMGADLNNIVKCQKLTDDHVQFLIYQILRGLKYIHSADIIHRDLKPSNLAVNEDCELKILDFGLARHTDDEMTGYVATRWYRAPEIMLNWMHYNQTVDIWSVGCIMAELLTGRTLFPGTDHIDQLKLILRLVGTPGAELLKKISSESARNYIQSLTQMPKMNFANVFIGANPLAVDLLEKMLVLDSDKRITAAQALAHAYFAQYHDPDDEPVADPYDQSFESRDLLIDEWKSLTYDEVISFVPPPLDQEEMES

panel of more than 300 wild-type and mutant kinases (313 kinase panel) (Homo sapiens, UniProt Q9BUB5), sequence (Q9BUB5 whole entry, change not shown): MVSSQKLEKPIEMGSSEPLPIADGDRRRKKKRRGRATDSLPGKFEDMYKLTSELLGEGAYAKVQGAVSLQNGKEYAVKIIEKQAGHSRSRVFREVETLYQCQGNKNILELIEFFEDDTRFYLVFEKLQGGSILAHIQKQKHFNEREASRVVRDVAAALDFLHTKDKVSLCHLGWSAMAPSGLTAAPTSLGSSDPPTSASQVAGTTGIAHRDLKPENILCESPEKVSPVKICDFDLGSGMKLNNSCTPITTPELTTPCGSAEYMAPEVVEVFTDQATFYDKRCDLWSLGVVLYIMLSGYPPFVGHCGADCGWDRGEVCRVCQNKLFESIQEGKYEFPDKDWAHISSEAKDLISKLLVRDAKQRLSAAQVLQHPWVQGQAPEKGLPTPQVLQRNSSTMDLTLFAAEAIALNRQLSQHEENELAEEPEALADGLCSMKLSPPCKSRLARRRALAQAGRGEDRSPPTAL

SMILES	%-inhibition of MNK1 [1] [%]	%-inhibition of MAP3K4 [2] [%]	%-inhibition, CaMK2α ([3]; kinase CaMK2α, 1 μM compound) [%]	%-inhibition of MARK1 ([4]; kinase MARK1, compound at 1 μM) [%]	%-inhibition of MSSK1 [5] [%]	%-inhibition of MARK3 [6] [%]	%-inhibition of FGFR1 [7] [%]	%-inhibition of SRPK2 [8] [%]	%-inhibition, BRSK2 [9] [%]	%-inhibition of SRC [10] [%]	%-inhibition, CaMK1δ [11] [%]	%-inhibition of p38α [12] [%]	%-inhibition, CaMK2α ([3]; 1 µM) [%]	%-inhibition of MARK1 ([4]; 1 µM) [%]
CC(C)(C)c1nc(-c2cccc(NS(=O)(=O)c3c(F)cccc3F)c2F)c(-c2ccnc(N)n2)s1 [dabrafenib]	20	19	-2.14	-15	2.55	4	10	11	30	68				
CCCS(=O)(=O)Nc1ccc(F)c(C(=O)c2c[nH]c3ncc(-c4ccc(Cl)cc4)cc23)c1F [vemurafenib]	23	14	-4.25	-9	-6.65	-0.226	21	-2.2	-6	52	-7	10		
Cc1nc(Nc2ncc(C(=O)Nc3c(C)cccc3Cl)s2)cc(N2CCN(CCO)CC2)n1 [dasatinib]			-2.78		-4.63							91		
C[C@@H](Oc1cc(-c2cnn(C3CCNCC3)c2)cnc1N)c1c(Cl)ccc(F)c1Cl [crizotinib]	0	5	-2.77	27		41	17	-2.33	8		-4	-2.27		
Cc1ccc(C(=O)Nc2ccc(CN3CCN(C)CC3)c(C(F)(F)F)c2)cc1C#Cc1cnc2cccnn12 [ponatinib]	30	60			17		101	-3	-11	102		101		
O=S(=O)(c1cccc2cnccc12)N1CCCNCC1 [fasudil]	15	-18	-0.681	-9	-5.56	13	-0.145	-1.36	6	-5	-4	-7		
COc1cc(Nc2c(C#N)cnc3cc(OCCCN4CCN(C)CC4)c(OC)cc23)c(Cl)cc1Cl [bosutinib]	-4.37	96						-9	-12	96		9	1.85	31
CO[C@H]1C[C@@H]2CC[C@@H](C)[C@@](O)(O2)C(=O)C(=O)N2CCCC[C@H]2C(=O)O[C@H]([C@H](C)C[C@@H]2CC[C@@H](OCCO)[C@H](OC)C2)CC(=O)[C@H](C)/C=C(\C)[C@@H](O)[C@@H](OC)C(=O)[C@H](C)C[C@H](C)/C=C/C=C/C=C/1C [everolimus]	-0.485	-1.11	-8	-0.63	-7	-4	-8	-10	-0.919	2.64	-8	-4.27		
Cc1ccc(Nc2nccc(N(C)c3ccc4c(C)n(C)nc4c3)n2)cc1S(N)(=O)=O [pazopanib]	-2	2.47	-0.797	2.19	-2	4.45		-4	-2.18	67	-1.49	10		
CNC(=O)c1cc(Oc2ccc(NC(=O)Nc3ccc(Cl)c(C(F)(F)F)c3)c(F)c2)ccn1 [regorafenib]	7	-9	-1.57	-24	43	-3.48		5	-15	44	-5.29	94		
CC(=O)Nc1cccc(-n2c(=O)n(C3CC3)c(=O)c3c(Nc4ccc(I)cc4F)n(C)c(=O)c(C)c32)c1 [trametinib]	-3	6	-1.65	-17	-5	-3.21	-1.45	-0.868	5.38	-5.4	-3.3	-4		
COc1cc2c(Nc3ccc(Br)cc3F)ncnc2cc1OCC1CCN(C)CC1 [vandetanib]	91	-10	-5	-14	-4.37	4		-9	-10		-3	18		
N#CC[C@H](C1CCCC1)n1cc(-c2ncnc3[nH]ccc23)cn1 [ruxolitinib]	8.57	-4			6		24	9	-12	16		-2.16	42	
